# Measurements published in US11499963B2, “Induction of differentiation of induced pluripotent stem cells into intestinal epithelial cells” (PUBLIC UNIVERSITY CORPORATION NAGOYA CITY UNIVERSITY, priority 2016, dated 2022).
# Experiments:
# OATP = experiment: Uptake of estrone-3-sulfate (ES) (OATP transport activity); type: cell-based, human; details: BSP 0.2 mmol/L; cells induced to differentiate using 8-Br-cAMP and IBMX
# Method: (§1) After completion of induction of differentiation, incubation was performed at 37° C. or 4° C. with an uptake solution containing tritium-labeled Gly-Sar or ES. In the Gly-Sar uptake experiment, there was used an uptake solution containing 137 mmol/L sodium chloride, 5.4 mmol/L potassium chloride, 0.81 mmol/L magnesium sulfate, 0.44 mmol/L potassium dihydrogen phosphate, 0.34 mmol/L disodium hydrogen phosphate, 1.3 mmol/L calcium chloride, 4.2 mmol/L sodium hydrogen carbonate, 5.6 mmol/L D-glucose and 10 mmol/L MES and having a pH of 6.0. In the ES uptake experiment, there was used an uptake solution containing 137 mmol/L sodium chloride, 5.4 mmol/L potassium chloride, 0.81 mmol/L magnesium sulfate, 0.44 mmol/L potassium dihydrogen phosphate, 0.34 mmol/L disodium hydrogen phosphate, 1.3 mmol/L calcium chloride, 4.2 mmol/L sodium hydrogen carbonate, 5.6 mmol/L D-glucose, and 10 mmol/L HEPES and having a pH of 7.4. After completion of incubation, uptake was stopped by washing the cells with the ice-cold uptake solution. Thereafter, the cells were solubilized with a 0.2 M sodium hydroxide solution containing 0.5% sodium dodecyl sulfate (SDS), and a scintillation solution was added. The intracellular uptake of Gly-Sar or ES was calculated from the radioactivity measured using a liquid scintillation counter.
# CYP3A4 [1] = experiment: Metabolic activity of midazolam (CYP3A4 metabolic activity) in differentiated intestinal epithelial cell-like cells; type: cell-based, human; details: VD3 10 nmol/L; cells induced to differentiate using 8-Br-cAMP and IBMX; midazolam 100 μmol/L
# Method: The metabolic activity was calculated from the amount of 1-hydroxymidazolam in the medium measured using a liquid chromatography-mass spectrometer (LC-MS/MS). After completion of the experiment on metabolism, protein quantification was carried out, and the metabolic activity was corrected by the amount of protein.
# CYP3A4 [2] = tested on: CYP3A4
# PEPT1 = target: T1, PEPT1 (Homo sapiens, UniProt P46059); experiment: Uptake of glycylsarcosine (Gly-Sar) (PEPT1 transport activity); type: cell-based; details: ibuprofen 3 mmol/L
# T1 construct: uptake of glycylsarcosine (Gly-Sar) in the differentiated intestinal epithelial cell-like cells (PEPT1 transport activity); endogenous in cells; host or cells: human iPS cell (iPS-51: Windy)-derived intestinal epithelial cell-like cells
# T1 sequence (P46059 1-708): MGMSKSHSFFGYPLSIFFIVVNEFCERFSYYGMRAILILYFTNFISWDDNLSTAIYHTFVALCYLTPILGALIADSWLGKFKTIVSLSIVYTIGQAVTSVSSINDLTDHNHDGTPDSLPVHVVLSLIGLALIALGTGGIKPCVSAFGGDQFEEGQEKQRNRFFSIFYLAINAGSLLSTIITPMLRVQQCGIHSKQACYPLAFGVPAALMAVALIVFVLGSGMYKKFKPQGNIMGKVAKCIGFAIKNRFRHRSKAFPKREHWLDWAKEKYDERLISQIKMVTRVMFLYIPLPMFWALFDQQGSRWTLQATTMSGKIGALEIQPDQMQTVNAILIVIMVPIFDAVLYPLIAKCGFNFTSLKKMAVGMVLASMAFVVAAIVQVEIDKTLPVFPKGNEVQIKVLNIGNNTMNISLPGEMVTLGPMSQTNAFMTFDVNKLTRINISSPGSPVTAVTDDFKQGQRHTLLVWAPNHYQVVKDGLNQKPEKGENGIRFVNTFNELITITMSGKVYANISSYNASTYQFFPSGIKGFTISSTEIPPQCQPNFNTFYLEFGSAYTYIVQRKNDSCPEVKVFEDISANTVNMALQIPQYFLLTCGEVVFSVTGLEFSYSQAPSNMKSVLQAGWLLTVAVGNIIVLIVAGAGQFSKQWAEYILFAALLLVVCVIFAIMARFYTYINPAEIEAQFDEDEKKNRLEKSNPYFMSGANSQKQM
# Method: as §1
# mucin 2 = experiment: Expression (mRNA level) of mucin 2 in iPS cell-derived intestinal epithelial cell-like cells; details: for expression (mRNA level) of mucin 2 (mucosa protecting action): added for 6 days, irsogladine 10, 40 μM, rebamipide 50, 100, 250, 1000 μM, vs control
# ALK5 = target: T2, ALK5 (Homo sapiens, UniProt P36897); details: cited from earlier work
# T2 sequence (P36897 34-503): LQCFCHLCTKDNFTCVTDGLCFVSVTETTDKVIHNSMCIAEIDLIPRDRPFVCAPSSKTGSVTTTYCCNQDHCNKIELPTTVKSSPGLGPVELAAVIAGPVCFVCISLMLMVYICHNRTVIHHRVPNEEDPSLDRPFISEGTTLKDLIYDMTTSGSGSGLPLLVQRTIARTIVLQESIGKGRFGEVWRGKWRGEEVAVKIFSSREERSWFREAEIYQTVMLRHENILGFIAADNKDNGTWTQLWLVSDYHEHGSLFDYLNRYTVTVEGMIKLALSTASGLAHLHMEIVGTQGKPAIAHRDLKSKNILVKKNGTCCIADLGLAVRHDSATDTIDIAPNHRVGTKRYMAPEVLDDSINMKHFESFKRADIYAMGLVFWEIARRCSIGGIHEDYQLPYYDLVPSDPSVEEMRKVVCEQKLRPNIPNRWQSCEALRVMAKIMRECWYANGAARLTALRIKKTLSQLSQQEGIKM
# ALK7 = target: T3, ALK7 (Homo sapiens, UniProt Q8NER5); details: cited from earlier work
# T3 sequence (Q8NER5 21-493): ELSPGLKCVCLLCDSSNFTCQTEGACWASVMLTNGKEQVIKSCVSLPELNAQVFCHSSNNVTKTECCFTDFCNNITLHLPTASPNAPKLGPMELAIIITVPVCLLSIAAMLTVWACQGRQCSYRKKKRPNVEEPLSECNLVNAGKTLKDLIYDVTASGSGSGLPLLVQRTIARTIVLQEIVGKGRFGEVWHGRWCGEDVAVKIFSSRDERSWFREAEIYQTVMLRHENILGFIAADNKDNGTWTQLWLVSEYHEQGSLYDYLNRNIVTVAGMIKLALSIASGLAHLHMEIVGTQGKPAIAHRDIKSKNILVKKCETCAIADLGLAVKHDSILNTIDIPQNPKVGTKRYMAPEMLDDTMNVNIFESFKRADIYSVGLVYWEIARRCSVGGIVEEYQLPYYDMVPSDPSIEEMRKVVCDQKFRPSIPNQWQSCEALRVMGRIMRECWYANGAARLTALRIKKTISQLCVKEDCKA
# ALK4 = target: T4, ALK4 (Homo sapiens, UniProt P36896); details: cited from earlier work
# T4 sequence (P36896 24-505): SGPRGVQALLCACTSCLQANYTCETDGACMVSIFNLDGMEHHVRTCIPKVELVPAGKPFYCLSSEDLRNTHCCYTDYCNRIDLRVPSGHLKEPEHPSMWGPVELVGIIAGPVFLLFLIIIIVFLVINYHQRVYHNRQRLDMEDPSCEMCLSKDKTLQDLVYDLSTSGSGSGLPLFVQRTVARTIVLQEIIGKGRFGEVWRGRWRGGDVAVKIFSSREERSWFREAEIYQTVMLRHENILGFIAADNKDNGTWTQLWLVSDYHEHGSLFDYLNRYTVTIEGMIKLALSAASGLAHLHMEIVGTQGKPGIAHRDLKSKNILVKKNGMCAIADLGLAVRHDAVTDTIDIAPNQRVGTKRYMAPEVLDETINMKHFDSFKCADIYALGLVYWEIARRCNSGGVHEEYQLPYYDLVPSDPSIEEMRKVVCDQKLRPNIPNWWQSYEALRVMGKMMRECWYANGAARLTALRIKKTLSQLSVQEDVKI
compound,measurement,setting,value
"O=C1OC(c2ccc(O)c(S(=O)(=O)O)c2)(c2ccc(O)c(S(=O)(=O)O)c2)c2c(Br)c(Br)c(Br)c(Br)c21 [BSP, bromsulphthalein]",uptake of ES in the presence of inhibitor,OATP,significantly reduced
"C=C1/C(=C\C=C2/CCC[C@]3(C)[C@@H]([C@H](C)CCCC(C)(C)O)CC[C@@H]23)C[C@@H](O)C[C@@H]1O [1α,25-dihydroxyvitamin D3]",activity of CYP3A4 (1-hydroxymidazolam formation) upon inducer treatment,CYP3A4 [1],significantly increased
same,induction of CYP3A4 expression,CYP3A4 [2],observed
CC(C)Cc1ccc(C(C)C(=O)O)cc1 (centres unmarked) [ibuprofen],Gly-Sar uptake in the presence of inhibitor,PEPT1; cells by the conventional differentiation method,significantly reduced
same,Gly-Sar uptake in the presence of inhibitor,PEPT1; cells induced to differentiate using 8-Br-cAMP and IBMX,significantly reduced
O=C(NC(Cc1cc(=O)[nH]c2ccccc12)C(=O)O)c1ccc(Cl)cc1 (centres unmarked) [rebamipide],expression (mRNA level) of mucin 2 (mucosa protecting action),mucin 2,increased
Cc1cccc(-c2nn(C(=S)Nc3ccccc3)cc2-c2ccnc3ccccc23)n1 [A-83-01],inhibitory activity against TGF-β receptor ALK5,ALK5,shows inhibitory activity
same,inhibitory activity against TGF-β receptor ALK7,ALK7,shows inhibitory activity
same,inhibitory activity against TGF-β receptor ALK4,ALK4,shows inhibitory activity
CC(C(=O)O)c1cccc(C(=O)c2ccccc2)c1 (centres unmarked) [ketoprofen],expression (mRNA level) of mucin 2 (mucosa damaging action),"mucin 2; ketoprofen 200 μM for 6 days, excepted from the decrease seen with NSAIDs",except for ketoprofen-200
Nc1nc(N)nc(-c2cc(Cl)ccc2Cl)n1 [irsogladine],expression (mRNA level) of mucin 2 (mucosa protecting action),mucin 2,increased
